According to patent publication US11364232B2, “Polymer of gamma-glutamyl transpeptidase catalyzing hydrolysis-induced charge reversal and its application in the field of drug delivery” (ZHEJIANG UNIVERSITY, priority 2017, dated 2022):

Target: γ-glutamyl transpeptidase (Homo sapiens, UniProt P19440)
Experiment: γ-glutamyl transpeptidase (GGT)-catalyzed hydrolysis of monomers followed by NMR
Assay type: biochemical
Details: monomer 25 μM in PBS pH 7.4 (D2O), GGT 1 U/mL, 37° C.
Description: Dissolve monomers GABEA or GAEA in PBS solution (pH=7.4, prepared by D2O) and configure the monomer concentration to 25 μM in the PBS solution. γ-glutamyl transpeptidase was added into the solution respectively so that the concentration of γ-glutamyl transpeptidase in the solution is 1 U/mL. At this time, the obtained product was immediately detected by nuclear magnetic resonance. The sample was placed in a 37° C. incubator and analyzed the nuclear magnetic resonance at different times.

Sequence of γ-glutamyl transpeptidase (P19440 whole entry): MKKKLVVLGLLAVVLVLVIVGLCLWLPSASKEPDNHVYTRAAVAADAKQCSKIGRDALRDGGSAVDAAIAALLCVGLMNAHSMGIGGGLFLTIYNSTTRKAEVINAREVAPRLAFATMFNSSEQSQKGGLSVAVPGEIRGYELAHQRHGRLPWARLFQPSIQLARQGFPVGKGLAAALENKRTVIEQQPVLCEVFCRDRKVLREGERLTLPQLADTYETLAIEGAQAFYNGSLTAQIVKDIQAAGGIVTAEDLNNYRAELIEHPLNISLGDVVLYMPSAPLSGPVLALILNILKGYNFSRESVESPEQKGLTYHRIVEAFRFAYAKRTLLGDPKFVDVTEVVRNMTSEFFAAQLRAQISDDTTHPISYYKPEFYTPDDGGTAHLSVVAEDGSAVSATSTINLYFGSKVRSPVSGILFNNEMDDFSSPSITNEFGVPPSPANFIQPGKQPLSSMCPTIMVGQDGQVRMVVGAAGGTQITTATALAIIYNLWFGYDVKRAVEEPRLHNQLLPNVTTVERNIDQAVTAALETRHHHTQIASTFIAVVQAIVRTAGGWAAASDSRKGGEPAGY

Row | Structure (SMILES) | hydrolysis activity of γ-glutamyl transpeptidase
1 | C=CC(=O)NCCNC(=O)C(CC)NC(=O)CCC(N)C(=O)O (centres unmarked) [GABEA] | far greater than GAEA
2 | C=CC(=O)NCCNC(=O)CCC(N)C(=O)O (centres unmarked) [GAEA] | lower catalytic activity
